Results taken from patent publication US11407721B2, “CIS-morpholinone and other compounds as MDM2 inhibitors for the treatment of cancer” (AMGEN INC., priority 2013, dated 2022).
Like-named read-outs stand apart in the source and are kept apart here.

Assays:
[1] = target: interaction between HDM2 and p53 (GST-hMDM2 (1-188) / biotinylated-p53 (1-83)) (Homo sapiens (Human), UniProt Q00987); assay: HTRF2 Assay (improved HTRF assay); assay type: binding
[2] = target: T1, interaction between HDM2 and p53 (GST-hMDM2 / biotinylated-p53) (Homo sapiens (Human), UniProt Q00987); conditions: read-out: HTRF3 IC50; HTRF1 conditions except 20 uL GST-hMDM2 incubated with 1.0 ul diluted compound
T1 sequence (Q00987 1-188): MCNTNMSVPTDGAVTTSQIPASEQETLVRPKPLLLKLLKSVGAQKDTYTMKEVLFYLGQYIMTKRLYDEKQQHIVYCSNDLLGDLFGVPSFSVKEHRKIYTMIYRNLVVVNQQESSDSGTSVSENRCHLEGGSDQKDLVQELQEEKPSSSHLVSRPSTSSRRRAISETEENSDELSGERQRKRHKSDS

[3] = target: T1, interaction between HDM2 and p53 (GST-hMDM2 / biotinylated-p53); assay: biochemical
[4] = target: interaction between HDM2 and p53 (GST-hMDM2 aa 1-188 / biotinylated-p53 aa 1-83) (Homo sapiens (Human), UniProt Q00987)
Sequence of interaction between HDM2 and p53 (GST-hMDM2 aa 1-188 / biotinylated-p53 aa 1-83) (Q00987 1-188): as above

[5] = 0.2 nM GST-hMDM2 (1-188), 0.5 nM biotinylated-p53 (1-83), 100 mM KF, read-out: HTRF2 IC50

Sequence of interaction between HDM2 and p53 (GST-hMDM2 (1-188) / biotinylated-p53 (1-83)) (Q00987 1-188): as above

Row | Compound | IC50 [1, 5] | IC50 [3] | further results
1 | CN(C)C(=O)C[C@H]1O[C@H](c2cccc(Cl)c2)[C@H](c2ccc(Cl)cc2)N(CC2CC2)C1=O | 7.56 µM |  | IC50 [2]: 2.78 µM
2 | CS(=O)(=O)OCC[C@H]1O[C@H](c2cccc(Cl)c2)[C@H](c2ccc(Cl)cc2)N(CC2CC2)C1=O | 4.81 µM |  | IC50 [2]: 6.86 µM
3 | CCC[C@H](C(=O)N1CCN(CCC(=O)O)CC1)N1C(=O)CO[C@@H](c2ccc(Cl)cc2)[C@H]1c1ccc(Cl)cc1 | 3.6 µM |  | IC50 [2]: 4.59 µM
4 | CN1C(=O)[C@@H](Cc2cccc(C(N)=O)c2)O[C@H](c2ccc(Cl)cc2)[C@@H]1c1ccc(Cl)cc1 | 7.39 µM |  | IC50 [2]: 12.4 µM
5 | CN1C(=O)[C@@H](Cc2ccc(C(N)=O)cc2)O[C@H](c2ccc(Cl)cc2)[C@@H]1c1ccc(Cl)cc1 | 3.66 µM |  | IC50 [2]: 5.8 µM
6 | CN1C(=O)CO[C@@H](c2ccc(Cl)cc2)[C@H]1c1ccc(Cl)cc1 (mixture of isomers) [(5R,6S)-5,6-Bis(4-chlorophenyl)-4-methylmorpholin-3-one and (5S,6R)-5,6-bis(4-chlorophenyl)-4-methylmorpholin-3-one] |  | 38.6 µM | IC50 [4]: 11.8 µM
7 | CCCC[C@H](C(=O)O)N1C(=O)CO[C@@H](c2ccc(Cl)cc2)[C@H]1c1ccc(Cl)cc1 [(2R)-2-((2S,3R)-2,3-bis(4-chlorophenyl)-5-oxo-4-morpholinyl)hexanoic acid] |  | 27.5 µM | IC50 [1]: 23.4 µM
8 | C=CC[C@H]1O[C@H](c2ccc(Br)cc2)[C@H](c2ccc(Br)cc2)N(C)C1=O [(2R,5S,6R)-5,6-bis(4-bromophenyl)-4-methyl-2-(2-propen-1-yl)-3-morpholinone] | 25 µM | 23.7 µM | 
9 | C[C@@H]1O[C@@H](c2ccc(Br)cc2)[C@@H](c2ccc(Br)cc2)N(C)C1=O [(2S,5R,6S)-5,6-bis(4-bromophenyl)-2,4-dimethyl-3-morpholinone] | 22.7 µM | 23.2 µM | 
10 | O=C1CO[C@@H](c2ccc(Cl)cc2)[C@@H](c2ccc(Cl)cc2)N1c1cccnc1 [(5R,6S)-5,6-bis(4-chlorophenyl)-4-(3-pyridinyl)-3-morpholinone] | 29.6 µM | 23.9 µM | 
11 | O=C1CO[C@@H](c2ccc(Cl)cc2)[C@@H](c2ccc(Cl)cc2)N1c1ccncc1 [(5R,6S)-5,6-bis(4-chlorophenyl)-4-(4-pyridinyl)-3-morpholinone] | 16.8 µM | 24.2 µM | 
12 | O=C1CO[C@@H](c2ccc(Cl)cc2)[C@@H](c2ccc(Cl)cc2)N1c1ccccc1 [(5R,6S)-5,6-bis(4-chlorophenyl)-4-phenyl-3-morpholinone] | 31.6 µM | > 100 µM | 
13 | CC(C)N1C(=O)CS(=O)(=O)[C@@H](c2cccc(Cl)c2)[C@H]1c1ccc(Cl)cc1 [(5R,6S)-6-(3-chlorophenyl)-5-(4-chlorophenyl)-4-(1-methylethyl)-3-thiomorpholinone 1,1-dioxide] |  |  | IC50 [4]: 1.56 µM
14 | O=C1CS(=O)(=O)[C@@H](c2cccc(Cl)c2)[C@@H](c2ccc(Cl)cc2)N1CC1CC1 [(5R,6S)-6-(3-chlorophenyl)-5-(4-chlorophenyl)-4-(cyclopropylmethyl)-3-thiomorpholinone 1,1-dioxide] | 22.4 µM |  | IC50 [4]: 4.76 µM
15 | CC(C)N1C(=O)CO[C@H](c2ccc(Br)cc2)[C@@H]1c1ccc(Br)cc1 [(5S,6R)-5,6-bis(4-bromophenyl)-4-(1-methylethyl)-3-morpholinone] | > 100 µM | 24.6 µM | 
16 | CCN1C(=O)CO[C@H](c2ccc(Br)cc2)[C@@H]1c1ccc(Br)cc1 [(5S,6R)-5,6-bis(4-bromophenyl)-4-ethyl-3-morpholinone] |  | 42.4 µM | 
17 | CCC[C@H](c1nnn[nH]1)N1C(=O)[C@H](Cc2ccc(C#N)c(F)c2)O[C@@H](c2ccc(Cl)cc2)[C@H]1c1ccc(Cl)cc1 [Example 35, 4-(((2S,5R,6S)-4-((R)-1-(1H-Tetrazol-5-yl)butyl)-5,6-bis(4-chlorophenyl)-3-oxomorpholin-2-yl)methyl)-2-fluorobenzonitrile] | 0.473 µM |  | IC50 [2]: 0.403 µM
18 | (2R,5S,6R)-5,6-Bis(4-chlorophenyl)-4-methyl-2-(pyridin-4-ylmethyl)morpholin-3-one and (2S,5R,6S)-5,6-bis(4-chlorophenyl)-4-methyl-2-(pyridin-4-ylmethyl)morpholin-3-one [Example 41] | 4.53 µM |  | IC50 [2]: 5.6 µM

Further compounds by falling IC50 [3], results first:

Row | IC50 [1, 5] | IC50 [3] | Compound | further results
19 | 10 µM | 16.6 µM | O=C1CO[C@@H](c2cccc(Cl)c2)[C@@H](c2ccc(Cl)cc2)N1C1CCCC1 [(5R,6S)-6-(3-chlorophenyl)-5-(4-chlorophenyl)-4-cyclopentyl-3-morpholinone] | 
20 | 20 µM | 12.3 µM | CN1C(=O)[C@@H](c2ccccc2)O[C@H](c2ccc(Br)cc2)[C@@H]1c1ccc(Br)cc1 [(2R,5S,6R)-5,6-bis(4-bromophenyl)-4-methyl-2-phenyl-3-morpholinone] | 
21 | 6.64 µM | 10.4 µM | CN1C(=O)/C(=C/c2cccnc2)O[C@H](c2ccc(Cl)cc2)C1c1ccc(Cl)cc1 (mixture of isomers) [Example 39, (5S,6R,Z)-5,6-Bis(4-chlorophenyl)-4-methyl-2-(pyridin-3-ylmethylene)morpholin-3-one and (5R,6S,Z)-5,6-bis(4-chlorophenyl)-4-methyl-2-(pyridin-3-ylmethylene)morpholin-3-one] | 
22 | 6.09 µM | 6.88 µM | CCC[C@H](CN)N1C(=O)CO[C@@H](c2ccc(Cl)cc2)[C@H]1c1ccc(Cl)cc1 [(5R,6S)-4-((1R)-1-(aminomethyl)butyl)-5,6-bis(4-chlorophenyl)-3-morpholinone] | 
23 |  | 4.64 µM | O=C1[C@H](C[C@H](O)CO)O[C@@H](c2cccc(Cl)c2)[C@@H](c2ccc(Cl)cc2)N1CC1CC1 (racemic) [Example 14, Step B] | IC50 ([1]; read-out: HTRF2 IC50): 3.67 µM
24 |  | 3.96 µM | O=CC[C@@H]1O[C@@H](c2cccc(Cl)c2)[C@@H](c2ccc(Cl)cc2)N(CC2CC2)C1=O (racemic) [Example 15, (2-((2S,5R,6S)-6-(3-Chlorophenyl)-5-(4-chlorophenyl)-4-(cyclopropylmethyl)-3-oxomorpholin-2-yl)acetaldehydeacetaldehyde and (2-((2R,5S,6R)-6-(3-chlorophenyl)-5-(4-chlorophenyl)-4-(cyclopropylmethyl)-3-oxomorpholin-2-yl)acetaldehydeacetaldehyde] | IC50 ([1]; read-out: HTRF2 IC50): 3.32 µM
25 | 3.61 µM | 3.72 µM | CCC[C@H](COC(N)=O)N1C(=O)CO[C@@H](c2ccc(Cl)cc2)[C@H]1c1ccc(Cl)cc1 [(2R)-2-((2S,3R)-2,3-bis(4-chlorophenyl)-5-oxo-4-morpholinyl)pentyl carbamate] | 
26 | 4.29 µM | 3.19 µM | CCC[C@H](C(N)=O)N1C(=O)CO[C@@H](c2ccc(Cl)cc2)[C@H]1c1ccc(Cl)cc1 [(2R)-2-((2S,3R)-2,3-bis(4-chlorophenyl)-5-oxo-4-morpholinyl)pentanamide] | 
27 | 0.947 µM | 0.539 µM | CCC[C@@H](C(=O)O)N1C(=O)[C@@H](Cc2ccncc2)O[C@H](c2ccc(Cl)cc2)C1c1ccc(Cl)cc1 (mixture of isomers) [Example 42, (S)-2-((2R,3S,6R)-2,3-Bis(4-chlorophenyl)-5-oxo-6-(pyridin-4-ylmethyl)morpholino)pentanoic acid and (R)-2-((2S,3R,6S)-2,3-bis(4-chlorophenyl)-5-oxo-6-(pyridin-4-ylmethyl)morpholino)pentanoic acid] | 
28 |  | 0.486 µM | CCC[C@H](C(=O)NCC(N)=O)N1C(=O)[C@H](Cc2ccc(C#N)cc2)O[C@@H](c2ccc(Cl)cc2)[C@H]1c1ccc(Cl)cc1 (racemic) [Example 34, (R)—N-(2-Amino-2-oxoethyl)-2-((2S,3R,6S)-2,3-bis(4-chlorophenyl)-6-(4-cyanobenzyl)-5-oxomorpholino)pentanamide and (S)—N-(2-amino-2-oxoethyl)-2-((2R,3S,6R)-2,3-bis(4-chlorophenyl)-6-(4-cyanobenzyl)-5-oxomorpholino)pentanamide] | IC50 ([1]; read-out: HTRF2 IC50): 0.745 µM
29 |  | 0.443 µM | CCC[C@H](C(=O)O)N1C(=O)[C@H](Cc2ccc(C#N)c(F)c2)O[C@@H](c2ccc(Cl)cc2)[C@H]1c1ccc(Cl)cc1 [(2R)-2-((2S,3R,6S)-2,3-bis(4-chlorophenyl)-6-(4-cyano-3-fluorobenzyl)-5-oxo-4-morpholinyl)pentanoic acid] | IC50 [1]: 0.539 µM
30 |  | 0.39 µM | CCC[C@H](C(=O)NCC(=O)O)N1C(=O)[C@H](Cc2ccc(C#N)c(F)c2)O[C@@H](c2ccc(Cl)cc2)[C@H]1c1ccc(Cl)cc1 [N-((2R)-2-((2S,3R,6S)-2,3-bis(4-chlorophenyl)-6-(4-cyano-3-fluorobenzyl)-5-oxo-4-morpholinyl)pentanoyl)glycine] | IC50 [1]: 0.517 µM
31 |  | 0.297 µM | CCC[C@H](C(=O)O)N1C(=O)[C@H](Cc2ccc(C#N)cc2)O[C@@H](c2ccc(Cl)cc2)[C@H]1c1ccc(Cl)cc1 [(2R)-2-((2S,3R,6S)-2,3-bis(4-chlorophenyl)-6-(4-cyanobenzyl)-5-oxo-4-morpholinyl)pentanoic acid] | IC50 [1]: 0.393 µM
